# Values joined by “and” are separate entries in the source; they are usually repeats but may differ in a detail not shown here. Equal values may be shown once. Where a SMILES comes first, the peptide text is derived from it. [ ]: non-standard residue; d: D form. Hyp = O=C(O)[C@@H]1C[C@@H](O)CN1
# Key:
# VEGF-A = test: Example 9 Luminex, LPS hPBMCs: VEGF-A; assay type: cell-based, human; settings: no LPS
# Protocol: (§1) Treatment Human PBMCs were pretreated with YY-101, YDE-011 and YDE-043 or reference compound; Xiidra® at various concentration (ranging from 1 nM to 100 uM) for 2 h before stimulation. An equal volume of 0.5% DMSO was used as a vehicle control. Then, the cells were treated with LPS at 5 ug/ml. The supernatants from treated cells were harvested at 24 h and placed in a 96 well for Luminex cytokine & chemokine profiling using a Luminex 200 multiplex assay (Luminex; R&D system, USA).
# (§2) The main study arm with triplicate wells per group in a 24-well plate: • 1. Blank • 2. PBMC: 0.5% DMSO • 3. PBMC+LPS (5 ug/ml) • 4. PBMC+YY-101 100 uM • 5. PBMC+YY-101 10 uM • 6. PBMC+YY-101 1 uM • 7. PBMC+YY-101 0.1 uM • 8. PBMC+YY-101 0.01 uM • 9. PBMC+LPS (5 ug/ml)+Xiidra®100 uM • 10. PBMC+LPS (5 ug/ml)+Xiidra® 10 uM • 11. PBMC+LPS (5 ug/ml)+Xiidra® 1 uM • 12. PBMC+LPS (5 ug/ml)+Xiidra®0.1 uM • 13. PBMC+LPS (5 ug/ml)+Xiidra®0.01 uM • 14. PBMC+LPS (5 ug/ml)+Xiidra®0.001 uM • 15. PBMC+LPS (5 ug/ml)+YY-101 100 uM • 16. PBMC+LPS (5 ug/ml)+YY-101 10 uM • 17. PBMC+LPS (5 ug/ml)+YY-101 1 uM • 18. PBMC+LPS (5 ug/ml)+YY-101 0.1 uM • 19. PBMC+LPS (5 ug/ml)+YY-101 0.01 uM • 20. PBMC+LPS (5 ug/ml)+YY-101 0.001 uM • 21. PBMC+LPS (5 ug/ml)+YDE-011 100 uM • 22. PBMC+LPS (5 ug/ml)+YDE-011 10 uM • 23. PBMC+LPS (5 ug/ml)+YDE-011 1 uM • 24. PBMC+LPS (5 ug/ml)+YDE-011 0.1 uM • 25. PBMC+LPS (5 ug/ml)+YDE-011 0.01 uM • 26. PBMC+LPS (5 ug/ml)+YDE-011 0.001 uM • 27. PBMC+LPS (5 ug/ml)+YDE-043 100 uM • 28. PBMC+LPS (5 ug/ml)+YDE-043 10 uM • 29. PBMC+LPS (5 ug/ml)+YDE-043 1 uM • 30. PBMC+LPS (5 ug/ml)+YDE-043 0.1 uM • 31. PBMC+LPS (5 ug/ml)+YDE-043 0.01 uM • 32. PBMC+LPS (5 ug/ml)+YDE-043 0.001 uM
# (§3) Multiplex assay was used to measure 30 cytokines and chemokines. The 1:2, 1:10 and 1:200 diluted cell supernatant and serial dilution of the standard were dispensed into a 96 well plate at 50 ul/well. Then, the pre-mixed cocktail of antibody-coated magnetic beads was dispensed at 50 ul/well and incubated at room temperature for 2 h in a horizontal orbital microplate shaker at 800±500 rpm. The beads were washed using a magnetic device to prevent loss. The biotin-antibody was dispensed in 50 ul of each well and incubated at room temperature for 1 h in a shaker at 800±500 rpm. After washing, streptavidin-PE was added at 50 ul/well and incubated at room temperature for 30 min in a shaker under the same conditions. Finally, after washing, wash buffer (100 ul/well) was added to the plate and incubated in a shaker for 2 min. The Luminex™ 200 setting were set according to the manufacturer's protocol. The data was calculated with a standard five-parameter logistic nonlinear regression analysis of the data (xPonent software 4.2, USA). The levels of cytokine/chemokine are normalized to the live cell counts (1×10^5 cells/mL) and presented as concentrations per mL (pg/mL or ng/mL).
# IL-10 = test: Example 9 Luminex, LPS hPBMCs: IL-10; assay type: cell-based, human; settings: for Concentration / conc/live cell (pg/10^5): IL-10
# Protocol: as §1, §2, §3
# [1] = PBMC + test article 10 uM, Mean
# [2] = PBMC + test article 10 uM, single replicates
# [3] = PBMC + test article 100 uM, Mean
# [4] = PBMC + test article 100 uM, single replicates
# [5] = PBMC + LPS(5 ug/ml) + test article 0.001 uM, Mean
# [6] = PBMC + LPS(5 ug/ml) + test article 0.001 uM, single replicates
# [7] = PBMC + LPS(5 ug/ml) + test article 0.01 uM, Mean
# [8] = PBMC + LPS(5 ug/ml) + test article 0.01 uM, single replicates
# [9] = PBMC + LPS(5 ug/ml) + test article 0.1 uM, Mean
# [10] = PBMC + LPS(5 ug/ml) + test article 0.1 uM, single replicates
# [11] = PBMC + LPS(5 ug/ml) + test article 1 uM, Mean
# [12] = PBMC + LPS(5 ug/ml) + test article 1 uM, single replicates
# [13] = PBMC + LPS(5 ug/ml) + test article 10 uM, Mean
# [14] = PBMC + LPS(5 ug/ml) + test article 10 uM, single replicates
# [15] = PBMC + LPS(5 ug/ml) + test article 100 uM, Mean
# [16] = PBMC + LPS(5 ug/ml) + test article 100 uM, single replicates
# [17] = PBMC + test article 0.01 uM, no LPS, Mean
# [18] = PBMC + test article 0.01 uM, no LPS, single replicates
# [19] = PBMC + test article 0.1 uM, no LPS, Mean
# [20] = PBMC + test article 0.1 uM, no LPS, single replicates
# [21] = PBMC + test article 10 uM, no LPS, Mean
# [22] = PBMC + test article 10 uM, no LPS, single replicates
# [23] = PBMC + test article 100 uM, no LPS, Mean
# [24] = PBMC + test article 100 uM, no LPS, single replicates
structure (smiles),measurement,setting,value
CC(C)C[C@H](NC(=O)CNC(=O)[C@H](CC(=O)O)NC(=O)[C@H](CCC(N)=O)NC(=O)CNC(=O)[C@@H]1C[C@@H](O)CN1)C(=O)N[C@@H](C)C(=O)NCC(=O)N1CCC[C@H]1C(=O)N[C@@H](CCCCN)C(=O)O [YY-101] (H-[Hyp]GQDGLAGPK-OH; N-terminus and C-terminus assumed),"Concentration, Bead name: VEGF-A",VEGF-A; [1],7.9 pg/mL
same,"MFI, Bead name: VEGF-A",VEGF-A; [1],1.0
same,"conc/live cell, Bead name: VEGF-A",VEGF-A; [1],1.3 pg/10^5
same,"Concentration, Bead name: VEGF-A",VEGF-A; [2],7.3 pg/mL and 8.5 pg/mL
same,"MFI, Bead name: VEGF-A",VEGF-A; [2],0.8 and 1.3
same,"conc/live cell, Bead name: VEGF-A",VEGF-A; [2],1.1 pg/10^5 and 1.4 pg/10^5
same,"Concentration, Bead name: VEGF-A",VEGF-A; [3],3.6 pg/mL
same,"MFI, Bead name: VEGF-A",VEGF-A; [3],−0.8
same,"conc/live cell, Bead name: VEGF-A",VEGF-A; [3],0.5 pg/10^5
same,"Concentration, Bead name: VEGF-A",VEGF-A; [4],3.6 pg/mL
same,"MFI, Bead name: VEGF-A",VEGF-A; [4],−0.8
same,"conc/live cell, Bead name: VEGF-A",VEGF-A; [4],0.6 pg/10^5 and 0.5 pg/10^5
same,Concentration,IL-10; [5],479.4 pg/mL
same,conc/live cell (pg/10^5),IL-10; [5],74.9 pg/10^5
same,Concentration,IL-10; [6],501.5 pg/mL and 488.8 pg/mL and 447.9 pg/mL
same,conc/live cell (pg/10^5),IL-10; [6],88.0 pg/10^5 and 68.9 pg/10^5 and 67.9 pg/10^5
same,Concentration,IL-10; [7],499.9 pg/mL
same,conc/live cell (pg/10^5),IL-10; [7],81.1 pg/10^5
same,Concentration,IL-10; [8],492.8 pg/mL and 499.5 pg/mL and 507.4 pg/mL
same,conc/live cell (pg/10^5),IL-10; [8],77.0 pg/10^5 and 83.2 pg/10^5 (2×)
same,Concentration,IL-10; [9],445.6 pg/mL
same,conc/live cell (pg/10^5),IL-10; [9],76.6 pg/10^5
same,Concentration,IL-10; [10],426.9 pg/mL and 459.4 pg/mL and 450.6 pg/mL
same,conc/live cell (pg/10^5),IL-10; [10],68.9 pg/10^5 and 88.3 pg/10^5 and 72.7 pg/10^5
same,Concentration,IL-10; [11],519.9 pg/mL
same,conc/live cell (pg/10^5),IL-10; [11],80.1 pg/10^5
same,Concentration,IL-10; [12],556.7 pg/mL and 484.8 pg/mL and 518.0 pg/mL
same,conc/live cell (pg/10^5),IL-10; [12],88.4 pg/10^5 and 68.3 pg/10^5 and 83.6 pg/10^5
same,Concentration,IL-10; [13],474.4 pg/mL
same,conc/live cell (pg/10^5),IL-10; [13],72.3 pg/10^5
same,Concentration,IL-10; [14],464.8 pg/mL and 537.1 pg/mL and 421.4 pg/mL
same,conc/live cell (pg/10^5),IL-10; [14],77.5 pg/10^5 and 83.9 pg/10^5 and 55.4 pg/10^5
same,Concentration,IL-10; [15],172.4 pg/mL
same,conc/live cell (pg/10^5),IL-10; [15],29.9 pg/10^5
same,Concentration,IL-10; [16],173.5 pg/mL and 168.6 pg/mL and 175.1 pg/mL
same,conc/live cell (pg/10^5),IL-10; [16],27.5 pg/10^5 and 27.2 pg/10^5 and 35.0 pg/10^5
same,Concentration,IL-10; [17],4.3 pg/mL
same,conc/live cell (pg/10^5),IL-10; [17],0.5 pg/10^5
same,Concentration,IL-10; [18],4.3 pg/mL
same,conc/live cell (pg/10^5),IL-10; [18],0.0 pg/10^5 and 0.9 pg/10^5
same,Concentration,IL-10; [19],4.3 pg/mL
same,conc/live cell (pg/10^5),IL-10; [19],0.4 pg/10^5
same,Concentration,IL-10; [20],4.3 pg/mL
same,conc/live cell (pg/10^5),IL-10; [20],0.0 pg/10^5 and 0.7 pg/10^5
same,conc/live cell (pg/10^5),"IL-10; PBMC + test article 1 uM, no LPS, Mean",0.0 pg/10^5
same,conc/live cell (pg/10^5),"IL-10; PBMC + test article 1 uM, no LPS, single replicates",0.0 pg/10^5
same,Concentration,IL-10; [21],12.6 pg/mL
same,conc/live cell (pg/10^5),IL-10; [21],2.0 pg/10^5
same,Concentration,IL-10; [22],23.2 pg/mL and 2.0 pg/mL
same,conc/live cell (pg/10^5),IL-10; [22],3.6 pg/10^5 and 0.3 pg/10^5
same,Concentration,IL-10; [23],8.2 pg/mL
same,conc/live cell (pg/10^5),IL-10; [23],0.6 pg/10^5
same,Concentration,IL-10; [24],8.2 pg/mL
same,conc/live cell (pg/10^5),IL-10; [24],1.3 pg/10^5 and 0.0 pg/10^5
same,LPS-induced IL-10 (in words),"IL-10; LPS 5 ug/mL 24 hrs, 100 uM to 1 nM",significantly reduced

# — US20230146455A1, “TREATMENT OF INFLAMMATORY DISEASES WITH PEPTIDES AND PHARMACEUTICAL COMPOSITIONS” (Yuyu Pharma, Inc., priority 2020, published 2023)
